The results in this text go back to patent publication US12741974B2, “Compounds constituting C20-modified salinomycin derivatives, a method for obtaining the same, a composition containing the same, a use of said compounds and a method for obtaining an intermediate product” (FILECLO SP. Z O.O., priority 2020, dated 2021).

The structures appear in SMILES notation. pIC50: −log10 of the molar value.

Assay type in all cases: cell-based
Data set [1] relates to LoVo/DX (drug-resistant human colon cancer). The experiment in a line: In vitro cytotoxicity test, SRB assay, 72 h incubation with compound. Particulars: for pIC50: LoVo/DX drug-resistant human colon cancer, SRB, 72 h; for RI: drug resistance coefficient, LoVo/DX versus LoVo, 4320 min; for SI LoVo/DX: selectivity coefficient, BALB/3T3 versus LoVo/DX. The method, then: (§1) In vitro cytotoxicity tests were performed according to the procedure described below. […] The solvent for further dilutions was a culture medium.
(§2) The experiments were repeated at least 3 times.

Data set [2] concerns LoVo (drug-sensitive human colon cancer). Described as above. The conditions noted are these: for pIC50: LoVo drug-sensitive human colon cancer, SRB, 72 h; for SI LoVo: selectivity coefficient, BALB/3T3 versus LoVo. Here is the method:
as §1, §2

The test system of data set [3] is Hs294T (human melanoma). The data set is described as above. The conditions noted are these: for pIC50: Hs 294T, Hs294T human melanoma, SRB, 72 h; for SI Hs294T: selectivity coefficient, BALB/3T3 versus Hs294T. Here is the method:
as §1, §2

Data set [4] relates to B16-F0 (murine melanoma). Described as above. The conditions noted are these: for pIC50: Mus musculus, B16F0, B16-F0 murine melanoma, SRB, 72 h; for SI B16-F0: selectivity coefficient, BALB/3T3 versus B16-F0. Here is the method: as §1, §2
Data set [5] concerns MCF-7 (human breast cancer). Described as above. Particulars: for pIC50: MCF7, MCF-7 human breast cancer, SRB, 72 h; for SI MCF-7: selectivity coefficient, BALB/3T3 versus MCF-7. The method, then:
as §1, §2

Data set [6] can be described thus: In vitro cytotoxicity test on normal cells, SRB assay, 72 h incubation with compound. The conditions noted are these: mouse, balb/3t3 cells, normal murine fibroblasts, read-out: IC50 BALB/3T3. Here is the method: (§3) Normal murine BALB/3T3 fibroblasts were also used in the tests for determining the selectivity coefficients of the compounds used in the assays.
as §1, §2

Data set [7] has as its system cancer cells. The experiment in a line: In vitro cytotoxicity tests, summary statements over the cancer cell lines. Particulars: versus salinomycin, in words. The method, then: The following cancer cell lines were used in in vitro studies: • B16-F0 (murine melanoma), • Hs294T (human melanoma), • LoVo (drug-sensitive human colon cancer), • LoVo/DX (drug-resistant human colon cancer), • MCF-7 (human breast cancer), • MV-4-11 (human biphenotypic leukaemia).
as §3
In vitro cytotoxicity tests were performed according to the procedure described below. Stock solutions of the test compounds at 10 mg/mLh were prepared for each experiment ex tempore by dissolving 1 mg of the preparation in 100 μL of dimethylsulfoxide (DMSO). The solvent for further dilutions was a culture medium. Compounds were tested at concentration ranges of 100 to 0.00001 μg/mLh (for the B16-F0 and Hs294T cell lines) and 100 to 0.1 μg/mLh (for the LoVo, LoVo/DX, MCF-7, MV-4-11 and BALB/3T3 cell lines).
An MTT tetrazolium salt reduction assay [as per: Wietrzyk et al., Anti-cancer drugs, 2007, 18, 447-457] was performed for MV-4-11 cells (human biphenotypic leukaemia) to evaluate the metabolic activity of cancer cells. On the other hand, to determine the anti-proliferative activity of all tested compounds against B16-F0 (murine melanoma), Hs294T (human melanoma), LoVo (drug-sensitive human colon cancer), LoVo/DX (drug-resistant human colon cancer), MCF-7 (human breast cancer) and BALB/3T3 (normal mouse fibroblasts) cell lines, the SRB colorimetric assay was used [as per: Skehan et al., Journal of the National Cancer Institute, 1990, 82, 1107-1112] measuring the inhibition of target cell proliferation based on the amount of cellular protein measured. In each experiment, samples containing specific concentrations of the test compound were applied to 96-well plates in triplicate. The experiments were repeated at least 3 times.
When calculating the mean absorbance value for a set of wells (untreated cells, cells treated with a specific compound at a specific concentration, control of medium alone), outliers were rejected using a 10% coefficient of variation CV.

Data set [8] relates to MV-4-11 (human biphenotypic leukaemia). Put plainly: In vitro cytotoxicity test, MTT assay, 72 h incubation with compound. Particulars: for pIC50: MV4-11, MV-4-11 human biphenotypic leukaemia, MTT, 72 h; for SI MV-4-11: selectivity coefficient, BALB/3T3 versus MV-4-11. The method, then: as §1, §2
After 4 hours of incubation at 37° C., 80 μL of lysis buffer was added to each well.

With `CC[C@@H](C(=O)[C@@H](C)[C@@H](O)[C@H](C)[C@@H]1O[C@@H]([C@@H](CC)C(=O)O)CC[C@@H]1C)[C@H]1O[C@]2(C=C[C@@H](NC(=O)C(C)C)[C@]3(CC[C@@](C)([C@H]4CC[C@](O)(CC)[C@H](C)O4)O3)O2)[C@H](C)C[C@@H]1C` [(10), C20-dehydroxy-C20-aminosalinomycin N-isobutyramide], in data set [1], the pIC50 is 6.72, the RI was determined as 0.3 and the “SI LoVo/DX” value came out at 18.5. Further, in data set [2], the pIC50 was 6.17 and the “SI LoVo” value was 5.3. In data set [3], the pIC50 is 7.70 and the “SI Hs294T” value is given as 176.0. For the same compound, in data set [4], the negative-log IC50 (pIC50) is 7.15 and the “SI B16-F0” value was 50.3. In addition, in data set [5], the pIC50 was 6.15 and the “SI MCF-7” value is 5.0. For the same compound, the CC50 at 72 h in data set [6] is 3520 nM. Further, the “anti-proliferative effect compared to the parent compound” value in data set [7] is “several times more potent”. Moreover, in data set [8], the pIC50 was 7.15 and the “SI MV-4-11” value came to 50.3.

Turning to `CC[C@@H](C(=O)[C@@H](C)[C@@H](O)[C@H](C)[C@@H]1O[C@@H]([C@@H](CC)C(=O)O)CC[C@@H]1C)[C@H]1O[C@]2(C=C[C@@H](NC(=O)c3ccc(CCl)cc3)[C@]3(CC[C@@](C)([C@H]4CC[C@](O)(CC)[C@H](C)O4)O3)O2)[C@H](C)C[C@@H]1C` [(16), C20-dehydroxy-C20-aminosalinomycin N-(4-chloromethyl)benzamide], in data set [1], the pIC50 is 6.20, the RI stood at 2.2 and the “SI LoVo/DX” value turned out to be 4.0. In data set [2], the negative-log IC50 (pIC50) is 6.54 and the “SI LoVo” value was found to be 8.6. Besides, in data set [3], the pIC50 is 7.52 and the “SI Hs294T” value was 83.3. Further, in data set [4], the negative logarithm of the IC50 (pIC50) was 6.32 and the “SI B16-F0” value was determined as 5.2. Further, in data set [5], the pIC50 is 6.24 and the “SI MCF-7” value is listed as 4.3. Also, the CC50 at 72 h in data set [6] came out at 2500 nM. In addition, in data set [8], the pIC50 was 7.52 and the “SI MV-4-11” value amounted to 83.3.

`CC[C@@H](C(=O)[C@@H](C)[C@@H](O)[C@H](C)[C@@H]1O[C@@H]([C@@H](CC)C(=O)O)CC[C@@H]1C)[C@H]1O[C@]2(C=C[C@@H](NC(=O)OC)[C@]3(CC[C@@](C)([C@H]4CC[C@](O)(CC)[C@H](C)O4)O3)O2)[C@H](C)C[C@@H]1C` [(18), C20-dehydroxy-C20-aminosalinomycin N-methylcarbamate]: in data set [1], the pIC50 was 6.80, the RI is reported as 0.3 and the “SI LoVo/DX” value amounted to 11.0. In data set [2], the pIC50 was 6.32 and the “SI LoVo” value was found to be 3.7. In data set [3], the pIC50 is 7.70 and the “SI Hs294T” value worked out at 88.0. In addition, in data set [4], the negative-log IC50 (pIC50) was 7.30 and the “SI B16-F0” value was 35.2. In addition, in data set [5], the pIC50 was 6.24 and the “SI MCF-7” value stood at 3.1. The CC50 at 72 h in data set [6] turned out to be 1760 nM. In data set [8], the pIC50 is 7.15 and the “SI MV-4-11” value stood at 25.1.

In the case of `CCOC(=O)N[C@@H]1C=C[C@]2(O[C@H]([C@@H](CC)C(=O)[C@@H](C)[C@@H](O)[C@H](C)[C@@H]3O[C@@H]([C@@H](CC)C(=O)O)CC[C@@H]3C)[C@@H](C)C[C@H]2C)O[C@@]12CC[C@@](C)([C@H]1CC[C@](O)(CC)[C@H](C)O1)O2` [(19), C20-dehydroxy-C20-aminosalinomycin N-ethylcarbamate], in data set [1], the pIC50 is 4.37, the RI was 269.4 and the “SI LoVo/DX” value was 0.02. Also, in data set [2], the pIC50 is 6.80 and the “SI LoVo” value is 6.1. In data set [3], the negative logarithm of the IC50 (pIC50) was 8.00 and the “SI Hs294T” value came out at 97.0. For the same compound, in data set [4], the pIC50 is 7.52 and the “SI B16-F0” value was determined as 32.3. Further, in data set [5], the pIC50 is 6.27 and the “SI MCF-7” value was 1.8. In data set [6], the CC50 at 72 h was 970 nM. Besides, in data set [8], the negative logarithm of the IC50 (pIC50) is 7.40 and the “SI MV-4-11” value is listed as 24.3.

For the compound `CC[C@@H](C(=O)[C@@H](C)[C@@H](O)[C@H](C)[C@@H]1O[C@@H]([C@@H](CC)C(=O)O)CC[C@@H]1C)[C@H]1O[C@]2(C=C[C@@H](NC(=O)OCC(C)(C)C)[C@]3(CC[C@@](C)([C@H]4CC[C@](O)(CC)[C@H](C)O4)O3)O2)[C@H](C)C[C@@H]1C` [(20), C20-dehydroxy-C20-aminosalinomycin N-neopentylcarbamate], in data set [1], the pIC50 is 6.19, the RI is on record as 0.8 and the “SI LoVo/DX” value is reported as 5.1. In addition, in data set [2], the negative-log IC50 (pIC50) is 6.09 and the “SI LoVo” value is recorded as 4.0. Besides, in data set [3], the pIC50 is 6.55 and the “SI Hs294T” value amounted to 11.6. Besides, in data set [4], the negative logarithm of the IC50 (pIC50) is 6.19 and the “SI B16-F0” value amounted to 5.1. In addition, in data set [5], the pIC50 is 5.62 and the “SI MCF-7” value is given as 1.4. In data set [6], the CC50 at 72 h worked out at 3240 nM. In addition, in data set [8], the negative-log IC50 (pIC50) was 6.44 and the “SI MV-4-11” value worked out at 9.0.

As to `CCCNC(=O)N[C@@H]1C=C[C@]2(O[C@H]([C@@H](CC)C(=O)[C@@H](C)[C@@H](O)[C@H](C)[C@@H]3O[C@@H]([C@@H](CC)C(=O)[O-])CC[C@@H]3C)[C@@H](C)C[C@H]2C)O[C@@]12CC[C@@](C)([C@H]1CC[C@](O)(CC)[C@H](C)O1)O2.[Na+]` [(23), propylurea of C20-dehydroxy-C20-aminosalinomycin], in data set [1], the pIC50 was 6.82, the RI was found to be 2.5 and the “SI LoVo/DX” value amounted to 10.3. Moreover, in data set [2], the pIC50 was 7.22 and the “SI LoVo” value was found to be 25.7. Also, in data set [3], the negative-log IC50 (pIC50) is 8.00 and the “SI Hs294T” value is given as 154.0. Further, in data set [4], the pIC50 was 7.15 and the “SI B16-F0” value amounted to 22.0. In data set [5], the pIC50 is 6.43 and the “SI MCF-7” value was 4.2. Further, the CC50 at 72 h in data set [6] was 1540 nM. Moreover, in data set [8], the pIC50 is 8.96 and the “SI MV-4-11” value worked out at 1400.0.

Take `CCCCNC(=O)N[C@@H]1C=C[C@]2(O[C@H]([C@@H](CC)C(=O)[C@@H](C)[C@@H](O)[C@H](C)[C@@H]3O[C@@H]([C@@H](CC)C(=O)[O-])CC[C@@H]3C)[C@@H](C)C[C@H]2C)O[C@@]12CC[C@@](C)([C@H]1CC[C@](O)(CC)[C@H](C)O1)O2.[Na+]` [(24), butylurea of C20-dehydroxy-C20-aminosalinomycin]: in data set [1], the negative-log IC50 (pIC50) was 6.96, the RI came out at 1.6 and the “SI LoVo/DX” value is recorded as 7.3. Further, in data set [2], the negative-log IC50 (pIC50) is 7.15 and the “SI LoVo” value came out at 11.4. For the same compound, in data set [3], the negative logarithm of the IC50 (pIC50) was 7.40 and the “SI Hs294T” value stood at 20.0. Also, in data set [4], the pIC50 is 7.30 and the “SI B16-F0” value came out at 16.0. In data set [5], the pIC50 was 6.40 and the “SI MCF-7” value was 2.0. Further, in data set [6], the CC50 at 72 h was 800 nM. Besides, in data set [8], the pIC50 is 9.00 and the “SI MV-4-11” value was 800.0.
